Data taken from ChEMBL document CHEMBL1129577, “Identification of a novel oxazolidinone (U-100480) with potent antimycobacterial activity” (1996).
≈ marks a conversion by molar mass, not a printed value.

Legend:
Assay type in all cases: functional
[1] = test system: Mycobacterium tuberculosis; assay: Compound was evaluated for in vitro anti-mycobacterial activity against Mycobacterium tuberculosis
[2] = test system: Mycobacterium tuberculosis; assay: In vitro anti-mycobacterial activity against multiple sensitive strains of Mycobacterium tuberculosis at 0.50 ug/mL
[3] = test system: Mycobacterium tuberculosis; assay: In vitro anti-mycobacterial activity against multiple sensitive strains of Mycobacterium tuberculosis at 0.125 ug/mL
[4] = test system: Mycobacterium tuberculosis; assay: In vitro anti-mycobacterial activity against multiple sensitive strains of Mycobacterium tuberculosis at 2 ug/mL
[5] = test system: Mycolicibacterium fortuitum; assay: Compound was evaluated for in vitro anti-mycobacterial activity against Mycobacterium fortuitum
Mycobacterium avium [6] = assay: Compound was evaluated for in vitro anti-mycobacterial activity against Mycobacterium avium complex (MAC) ATCC 49601
Mycobacterium simiae = assay: Compound was evaluated for in vitro anti-mycobacterial activity against Mycobacterium simiae
Mycobacterium malmoense = assay: Compound was evaluated for in vitro anti-mycobacterial activity against Mycobacterium malmoense
Mycobacterium avium [7] = assay: Compound was evaluated for in vitro anti-mycobacterial activity against MAC 101
Mycobacterium xenopi = assay: Compound was evaluated for in vitro anti-mycobacterial activity against Mycobacterium xenopi
[8] = test system: Mycobacterium tuberculosis; assay: Compound was evaluated for in vitro anti-mycobacterial activity against Mycobacterium tuberculosis H37Rv
Mycobacterium avium [9] = assay: Compound was evaluated for in vitro anti-mycobacterial activity against Mycobacterium avium complex by 90%
Mycobacterium avium [10] = assay: Compound was evaluated for in vitro anti-mycobacterial activity against Mycobacterium avium complex by 50%
[11] = test system: Mycobacterium tuberculosis; assay: In vitro anti-mycobacterial activity against multiple sensitive strains of Mycobacterium tuberculosis at 0.03 ug/mL

SMILES	MIC [1] [µg/mL]	No. of strains [2]	No. of strains [3]	MIC [5] [µg/mL]	MIC (Mycobacterium avium [6]) [µg/mL]	MIC (Mycobacterium simiae) [µg/mL]	MIC (Mycobacterium malmoense) [µg/mL]	MIC (Mycobacterium avium [7]) [µg/mL]	MIC (Mycobacterium xenopi) [µg/mL]	also measured
CC(=O)NC[C@H]1CN(c2ccc(N3CC[S+]([O-])CC3)c(F)c2)C(=O)O1	< 0.125	–	–	–	–	–	–	–	–	–
CC(=O)NC[C@H]1CN(c2ccc(N3CCS(=O)(=O)CC3)c(F)c2)C(=O)O1	–	4	1	–	–	–	–	–	–	No. of strains [4]: 1
CC[C@H]1OC(=O)[C@H](C)[C@@H](O[C@H]2C[C@@](C)(OC)[C@@H](O)[C@H](C)O2)[C@H](C)[C@@H](O[C@@H]2O[C@H](C)C[C@H](N(C)C)[C@H]2O)[C@](C)(O)C[C@@H](C)CN(C)[C@H](C)[C@@H](O)[C@]1(C)O [AZITHROMYCIN]	–	–	–	> 64	4 (≈ 5.34 µM)	4 (≈ 5.34 µM)	16 (≈ 21.4 µM)	4 (≈ 5.34 µM)	1 (≈ 1.34 µM)	–
NNC(=O)c1ccncc1 [ISONIAZID]	0.2 (≈ 1.46 µM)	–	–	–	–	–	–	–	–	–
CC(=O)NC[C@H]1CN(c2ccc(N3CCSCC3)c(F)c2)C(=O)O1 [SUTEZOLID]	–	2	2	8 (≈ 22.6 µM)	4 (≈ 11.3 µM)	2 (≈ 5.66 µM)	2 (≈ 5.66 µM)	0.5 (≈ 1.41 µM)	2 (≈ 5.66 µM)	MIC [8]: < 0.125 µg/mL; MIC (Mycobacterium avium [9]): 4 µg/mL (≈ 11.3 µM); MIC (Mycobacterium avium [10]): 2 µg/mL (≈ 5.66 µM); No. of strains [11]: 1
